In PMC4285139, “Target discovery of acivicin in cancer cells elucidates its mechanism of growth inhibition” (Chemical Science, 2014):
One block for each molecule: values may come before it.

Tests used:
[1] = target: T1, ALDH4A1 (Homo sapiens, UniProt P30038); test: pre-incubation of native enzyme blocks probe labelling (competitive ABPP); format: cell-based
T1 sequence (P30038 25-563): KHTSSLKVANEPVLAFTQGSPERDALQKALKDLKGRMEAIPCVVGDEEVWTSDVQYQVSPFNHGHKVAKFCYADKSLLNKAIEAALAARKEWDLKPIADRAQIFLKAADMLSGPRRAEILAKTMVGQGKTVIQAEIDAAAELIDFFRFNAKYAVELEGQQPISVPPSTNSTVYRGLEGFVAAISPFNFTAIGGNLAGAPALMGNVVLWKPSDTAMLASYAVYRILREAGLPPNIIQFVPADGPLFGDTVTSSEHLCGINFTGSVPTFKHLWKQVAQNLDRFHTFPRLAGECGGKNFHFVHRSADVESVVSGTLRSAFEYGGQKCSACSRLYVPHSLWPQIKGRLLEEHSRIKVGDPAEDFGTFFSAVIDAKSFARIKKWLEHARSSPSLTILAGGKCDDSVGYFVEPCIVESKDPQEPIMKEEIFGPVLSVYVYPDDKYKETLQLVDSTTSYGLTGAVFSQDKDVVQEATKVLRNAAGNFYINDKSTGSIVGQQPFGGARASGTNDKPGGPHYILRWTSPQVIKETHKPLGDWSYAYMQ

[2] = target: T2, ALDH1A1 (Homo sapiens, UniProt P00352); test: enzyme inhibition assay with purified recombinant enzyme ([…] min pre-incubation); format: biochemical
T2 sequence (P00352 2-501): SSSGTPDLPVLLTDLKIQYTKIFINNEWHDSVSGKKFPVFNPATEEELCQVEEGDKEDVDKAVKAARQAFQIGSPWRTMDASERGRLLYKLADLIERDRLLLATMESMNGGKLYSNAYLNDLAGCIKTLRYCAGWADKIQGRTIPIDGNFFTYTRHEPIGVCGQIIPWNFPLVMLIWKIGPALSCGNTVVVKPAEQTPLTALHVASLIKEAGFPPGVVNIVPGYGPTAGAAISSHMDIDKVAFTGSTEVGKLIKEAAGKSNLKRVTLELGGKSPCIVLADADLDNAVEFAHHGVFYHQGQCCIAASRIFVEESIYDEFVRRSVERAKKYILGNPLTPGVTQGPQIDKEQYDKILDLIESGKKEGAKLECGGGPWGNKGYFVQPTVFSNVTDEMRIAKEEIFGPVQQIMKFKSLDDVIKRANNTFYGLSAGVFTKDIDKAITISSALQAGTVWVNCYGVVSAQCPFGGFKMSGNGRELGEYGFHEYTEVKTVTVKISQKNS

[3] = target: T1, ALDH4A1; test: enzyme inhibition assay with purified recombinant enzyme ([…] min pre-incubation); also ABPP labelling, lost in the Cys348Ala mutant; format: biochemical
[4] = target: T1, ALDH4A1; test: enzyme inhibition assay with purified recombinant enzyme ([…] min pre-incubation); also competitive ABPP labelling in HepG2 lysate and cells; format: biochemical

Structure (SMILES): CCN(CC)C(=S)SSC(=S)N(CC)CC [disulfiram]
pre-incubation of native enzyme blocks probe labelling (competitive ABPP) [1]: pre-incubation of the native enzyme with the ALDH inhibitor disulfiram resulted in a lack of labeling

Structure (SMILES): C#CCCCC(=O)N[C@H](C(=O)O)[C@@H]1CC(Cl)=NO1 [ACV1]
IC50 [3]: 0.7 µM

Structure (SMILES): N[C@H](C(=O)O)[C@@H]1CC(Cl)=NO1 [ACV, Acivicin]
IC50 [4]: 5.4 µM

Second part, the molecule after the results:

IC50 [2]: 55 µM
Structure (SMILES): C#CCNC(=O)[C@@H](N)[C@@H]1CC(Cl)=NO1 [ACV2]

IC50 [2]: 0.3 µM
Structure (SMILES): C#CCCCC(=O)OC[C@H]1CC(Br)=NO1 [ACVL1]
